# Legend:
# [1] = target: T1, Free fatty acid receptor 2 (Homo sapiens, UniProt O15552); test: Agonist activity at human GPCR43 transfected in HEK293 cells assessed as [35S]GTPgammaS binding by scintillation counting method
# T1 sequence (O15552 whole entry): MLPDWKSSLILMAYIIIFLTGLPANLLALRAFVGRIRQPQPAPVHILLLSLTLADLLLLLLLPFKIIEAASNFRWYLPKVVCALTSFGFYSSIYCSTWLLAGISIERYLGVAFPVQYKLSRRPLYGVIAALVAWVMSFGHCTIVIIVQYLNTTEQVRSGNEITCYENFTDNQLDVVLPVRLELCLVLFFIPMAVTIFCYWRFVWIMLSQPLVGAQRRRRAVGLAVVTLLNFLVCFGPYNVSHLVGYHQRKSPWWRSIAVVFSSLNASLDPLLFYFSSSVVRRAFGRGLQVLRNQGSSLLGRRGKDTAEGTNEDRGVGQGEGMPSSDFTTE
# [2] = target: T2, Free fatty acid receptor 3 (Homo sapiens, UniProt O14843); test: Agonist activity at human GPCR41 transfected in HEK293 cells assessed as [35S]GTPgammaS binding by scintillation counting method; assay type: functional, cell-based
# T2 sequence (O14843 whole entry): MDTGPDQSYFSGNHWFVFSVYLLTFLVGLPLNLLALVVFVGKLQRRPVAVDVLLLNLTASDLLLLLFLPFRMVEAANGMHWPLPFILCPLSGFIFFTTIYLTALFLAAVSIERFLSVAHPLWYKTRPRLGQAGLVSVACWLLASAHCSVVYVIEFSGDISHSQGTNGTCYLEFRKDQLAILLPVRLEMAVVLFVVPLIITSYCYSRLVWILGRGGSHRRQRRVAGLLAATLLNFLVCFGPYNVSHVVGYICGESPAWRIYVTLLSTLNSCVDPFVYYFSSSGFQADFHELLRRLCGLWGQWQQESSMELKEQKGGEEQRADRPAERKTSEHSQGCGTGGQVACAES
Compound,EC50 [1] [µM],EC50 [2] [µM]
CC(=O)O [ACETIC ACID],250 to 500,12 to 274
CCCC(=O)O [BUTYRIC ACID],–,12 to 274
CCC(=O)O [PROPIONIC ACID],–,12 to 274

# From ChEMBL document CHEMBL4028853, “Microbiota-Host Transgenomic Metabolism, Bioactive Molecules from the Inside” (J Med Chem, 2018)
